Results taken from patent US20250176550A1, “HERBICIDE COMPOSITION OF URACIL COMPOUND CONTAINING CARBOXYLATE FRAGMENT AND THE USE THEREOF” (Jiangsu Flag Chemical Industry Co., Ltd., priority 2022, published 2025).
Read-outs that look alike come from different tables or passages of the source.

Columns and labels:
Assay type in all cases: in vivo
eclipta prostrata = assay: Indoor virulence and combined effect, greenhouse pot test, pre-emergence soil spray treatment, fresh weight inhibition
Description: (§1) The active ingredients A and B are respectively screened and an indoor combined effect of the composition on weeds was evaluated by an indoor test and a field test, to determine a combined effect of the composition on weeds.
(§2) Quantitative seeds of Poaceae weeds (echinochloa crusgalli, Digitaria sanguinalis, setaria viridis, Eleusine indica, avena fatua, alopecurus japonicus, alopecurus aequalis, Lolium multiflorum) and broadleaf weeds (eclipta prostrata, rorippa dubia, Abutilon theophrasti, conyza canadensis, veronica persica, myosoton aquaticum, polygonum lapathifolium, galium aparine var. tenerum, alisma plantago-aquatica, geranium carolinianum) were sown in paper cup containing nutrient soil with a diameter of 7 cm, covered with soil for 1 cm after sowing. After pressing and watering, they were cultured in a greenhouse according to a conventional method. Poaceae weeds grew to 3˜4 leaf stage, broad-leaved weeds grew to 4˜6 leaf stage, spraying treatment to both stem and leaf was performed; and pre-seedling soil spray treatment was performed 24 hours after sowing. Following an experimental design dosage, a WP-2000 walking spray tower (spindle speed 96 mm/r, spray height 200 mm, effective spray amplitude of nozzle 350 mm, nozzle flow rate 390 mL/min, nozzle walking speed 210 mm/s) was used for the spray treatment. The experiment was repeated three times. After being treated, a sample material is placed in an operation hall, and after the drug solution is naturally dried out, the sample material is placed in a greenhouse and managed according to the conventional method. A reaction of weeds to the drug agent is observed and recorded, and a regularly visual check of a control effect of the drug agent on weeds was performed after the treatment.
(§3) All of original drugs were using acetone as a solvent, being diluted with 0.1 wt % emulsifier of Tween-80 aqueous solution, and being diluted right before using.
(§4) When determining a ratio or content of the active ingredient A and the active ingredient B, it should be measured from characteristics of action of both agents and virulence thereof, as well as the main purpose of use of a formula shall also be considered in. In the present study, on a basis of previous pre-test, the dosages of the active ingredient A and the active ingredient B were set, when being used alone and mixed, as shown in the following table. Water containing no agent, but containing the same solvent and emulsifier was used as a blank control.
(§5) Repeat 4 times for each treatment, 3 pots per treatment each time and 30 weed seeds were sown for each pot.
(§6) Adopting an absolute number survey method, using a blade to cut the whole seedling of surviving weed along soil surface, and weighting the fresh weight of the weed with an analytical balance. For weeds that had died, counting the fresh weight as zero.
(§7) Survey period and frequency: 21 days after the treatment, total 1 investigation.
(§8) The theoretical fresh weight inhibition rate (E0-Expected Efficacy=[…]) of each treatment combination was calculated by Gowing method, and then compared with the measured inhibition rate (E-Observed Efficacy) to evaluate the combined effect type of both on weeds. When E-E0 value was greater than 10%, it was counted as a synergistic effect, less than −10%, it was counted as an antagonistic effect, and between −10%˜10%, it was counted as an additive effect. According to a plurality of factors including an actual control efficacy, a herbicide characteristic, a formula balance and other factors to determine the best ratio. In the formula, X is the fresh weight inhibition rate of the ingredient A at a dosage of P; Y is the fresh weight inhibition rate of the active ingredient B at a dosage of Q.
(§9) The statistical results are shown in Table 1 to Table 44 below, except for those marked clearly as “pre-emergence treatment”, all others are “post-emergence treatment”. […]

digitaria sanguinalis = assay: as above
Description: as §1, §2, §3, §4, §5, §6, §7, §8, §9

setaria viridis = assay: Indoor virulence and combined effect, greenhouse pot test, post-emergence stem and leaf spray, fresh weight inhibition; details: for inhibition at 750 g/ha: 750 g a.i./ha; for Fresh weight inhibition rate %, B single agent: Table 10
Description: as §1
as §2, with “Following an experimental design dosage, a WP-2000 walking spray tower (spindle speed 96 mm/r, spray height 200 mm, effective spray amplitude of nozzle 350 mm, nozzle flow rate 390 mL/min, nozzle walking speed 210 mm/s) was used for the spray treatment.” left out, “method.” for “method. A reaction of weeds to the drug agent is observed and recorded, and a regularly visual check of a control effect of the drug agent on weeds was performed after the treatment.”
as §3, §4, §5, §6, §7
When E-E0 value was greater than 10%, it was counted as a synergistic effect, less than −10%, it was counted as an antagonistic effect, and between −10%˜10%, it was counted as an additive effect. […] In the formula, X is the fresh weight inhibition rate of the ingredient A at a dosage of P; Y is the fresh weight inhibition rate of the active ingredient B at a dosage of Q.

alopecurus japonicus = assay: as above; details: for inhibition at 25 g/ha: 25 g a.i./ha; for Fresh weight inhibition rate %, B single agent: Table 25
Description: as §1, §2, §3, §4, §5, §6, §7, §8, §9

eleusine indica = assay: Indoor virulence and combined effect, greenhouse pot test, pre-emergence soil spray treatment, fresh weight inhibition
Description: as §1, §2, §3, §4, §5, §6, §7, §8, §9

SMILES: CCc1cccc(C)c1N(C(=O)CCl)[C@@H](C)COC [S-metolachlor]
- Fresh weight inhibition rate %, B single agent (eclipta prostrata; Table 28, B 300 g a.i./ha): 45.64%
- Fresh weight inhibition rate %, B single agent (eclipta prostrata; Table 28, B 450 g a.i./ha): 57.41%
- Fresh weight inhibition rate %, B single agent (eclipta prostrata; Table 28, B 600 g a.i./ha): 61.78%
- Fresh weight inhibition rate %, B single agent (eclipta prostrata; Table 28, B 750 g a.i./ha): 70.72%

SMILES: CCOCN(C(=O)CCl)c1c(C)cccc1CC [acetochlor]
- Fresh weight inhibition rate %, B single agent (digitaria sanguinalis; Table 40, B 250 g a.i./ha): 55.88%
- Fresh weight inhibition rate %, B single agent (digitaria sanguinalis; Table 40, B 375 g a.i./ha): 67.45%

SMILES: CCNc1nc(Cl)nc(NC(C)C)n1 [atrazine]
- inhibition at 600 g/ha (setaria viridis; Setaria viridis, 504 h, Table 8, 600 g a.i./ha, post-emergence, 21 days after treatment, read-out: Fresh weight inhibition rate %, B single agent): 26.1%
- inhibition at 750 g/ha (setaria viridis; Setaria viridis, 504 h, Table 8, post-emergence, 21 days after treatment, read-out: Fresh weight inhibition rate %, B single agent): 33%
- inhibition at 800 g/ha (setaria viridis; Setaria viridis, 504 h, Table 8, 800 g a.i./ha, post-emergence, 21 days after treatment, read-out: Fresh weight inhibition rate %, B single agent): 41.6%

SMILES: CCSC(C)CC1CC(=O)C(/C(CC)=N/OC/C=C/Cl)=C(O)C1 (stereo not drawn) [clethodim]
- inhibition at 25 g/ha (alopecurus japonicus; Alopecurus japonicus, 504 h, Table 5, post-emergence, 21 days after treatment, read-out: Fresh weight inhibition rate %, B single agent): 7.52%
- inhibition at 40 g/ha (alopecurus japonicus; Alopecurus japonicus, 504 h, Table 5, 40 g a.i./ha, post-emergence, 21 days after treatment, read-out: Fresh weight inhibition rate %, B single agent): 34.8%
- inhibition at 60 g/ha (alopecurus japonicus; Alopecurus japonicus, 504 h, Table 5, 60 g a.i./ha, post-emergence, 21 days after treatment, read-out: Fresh weight inhibition rate %, B single agent): 43%

SMILES: COC(=O)[C@@H](C)Oc1ccc(Oc2ncc(C(F)(F)F)cc2Cl)cc1 [haloxyfop-P-methyl]
- Fresh weight inhibition rate %, B single agent (alopecurus japonicus; B 15 g a.i./ha): 7.80%
- Fresh weight inhibition rate %, B single agent (alopecurus japonicus; B 25 g a.i./ha): 15.29%
- Fresh weight inhibition rate %, B single agent (alopecurus japonicus; B 40 g a.i./ha): 15.32%
- Fresh weight inhibition rate %, B single agent (alopecurus japonicus; B 60 g a.i./ha): 27.52%

SMILES: CC(C)c1ccc(NC(=O)N(C)C)cc1 [isoproturon]
- Fresh weight inhibition rate %, B single agent (setaria viridis; B 400 g a.i./ha): 22.19%
- Fresh weight inhibition rate %, B single agent (setaria viridis; B 495 g a.i./ha): 23.26%
- Fresh weight inhibition rate %, B single agent (setaria viridis; B 600 g a.i./ha): 33.26%

SMILES: CCC(CC)Nc1c([N+](=O)[O-])cc(C)c(C)c1[N+](=O)[O-] [pendimethalin]
- Fresh weight inhibition rate %, B single agent (eleusine indica; Table 21, B 300 g a.i./ha): 36.92%
- Fresh weight inhibition rate %, B single agent (eleusine indica; Table 21, B 375 g a.i./ha): 54.44%

SMILES: CCc1cc(C)cc(CC)c1-c1c(OC(=O)C(C)(C)C)n2n(c1=O)CCOCC2 [pinoxaden]
- inhibition at 15 g/ha (alopecurus japonicus; Alopecurus japonicus, 504 h, Table 7, 15 g a.i./ha, post-emergence, 21 days after treatment, read-out: Fresh weight inhibition rate %, B single agent): 38.8%
- inhibition at 20 g/ha (alopecurus japonicus; Alopecurus japonicus, 504 h, Table 7, 20 g a.i./ha, post-emergence, 21 days after treatment, read-out: Fresh weight inhibition rate %, B single agent): 42.3%
- inhibition at 25 g/ha (alopecurus japonicus; Alopecurus japonicus, 504 h, Table 7, post-emergence, 21 days after treatment, read-out: Fresh weight inhibition rate %, B single agent): 58.7%

SMILES: CCC(=O)Nc1ccc(Cl)c(Cl)c1 [propanil]
- inhibition at 500 g/ha (setaria viridis; Setaria viridis, 504 h, Table 6, 500 g a.i./ha, post-emergence, 21 days after treatment, read-out: Fresh weight inhibition rate %, B single agent): 48.1%
- inhibition at 750 g/ha (setaria viridis; Setaria viridis, 504 h, Table 6, post-emergence, 21 days after treatment, read-out: Fresh weight inhibition rate %, B single agent): 58.1%
- inhibition at 1000 g/ha (setaria viridis; Setaria viridis, 504 h, Table 6, 1000 g a.i./ha, post-emergence, 21 days after treatment, read-out: Fresh weight inhibition rate %, B single agent): 69.1%

SMILES: CCCN(CCC)c1c([N+](=O)[O-])cc(C(F)(F)F)cc1[N+](=O)[O-] [trifluralin]
- Fresh weight inhibition rate %, B single agent (digitaria sanguinalis; Table 39, B 156.25 g a.i./ha): 12.50%
- Fresh weight inhibition rate %, B single agent (digitaria sanguinalis; Table 39, B 250 g a.i./ha): 48.67%
- Fresh weight inhibition rate %, B single agent (digitaria sanguinalis; Table 39, B 375 g a.i./ha): 62.58%
